From US11272709B2, “Amidine substituted benzoyl derivatives useful as herbicides” (Syngenta Participations AG, priority 2018, dated 2022)

Legend:
Format in all cases: in vivo
Conditions in all cases: evaluated after 13 days
[1] = tested on: Amaranthus retoflexus (AMARE); test: Pre-emergence herbicidal glasshouse test, Amaranthus retoflexus (AMARE)
Procedure, shortened: (§1)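 Pot-grown plants in standard soil were sprayed one day after sowing (pre-emergence) or after 8 days' cultivation (post-emergence) at 500 g/h unless otherwise indicated, in acetone/water (50:50) with 0.5% Tween 20. Glasshouse at 24/16 °C day/night, 14 h light, 65% humidity; percent damage was scored after 13 days on a 1–5 scale (5=80-100%, 1=0-19%).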

[2] = tested on: Abutilon theophrasti (ABUTH); test: Pre-emergence herbicidal glasshouse test, Abutilon theophrasti (ABUTH)
Procedure, shortened: as §1

Setaria faberi (SETFA) [3] = test: Pre-emergence herbicidal glasshouse test, Setaria faberi (SETFA)
Procedure, shortened: as §1

[4] = tested on: Echinochloa crus-galli (ECHCG); test: Pre-emergence herbicidal glasshouse test, Echinochloa crus-galli (ECHCG)
Procedure, shortened: as §1

[5] = tested on: Ipomoea hederacea (IPOHE); test: Pre-emergence herbicidal glasshouse test, Ipomoea hederacea (IPOHE)
Procedure, shortened: as §1

[6] = tested on: Amaranthus retoflexus (AMARE); test: Post-emergence herbicidal glasshouse test, Amaranthus retoflexus (AMARE)
Procedure, shortened: as §1

[7] = tested on: Abutilon theophrasti (ABUTH); test: Post-emergence herbicidal glasshouse test, Abutilon theophrasti (ABUTH)
Procedure, shortened: as §1

Setaria faberi (SETFA) [8] = test: Post-emergence herbicidal glasshouse test, Setaria faberi (SETFA)
Procedure, shortened: as §1

[9] = tested on: Echinochloa crus-galli (ECHCG); test: Post-emergence herbicidal glasshouse test, Echinochloa crus-galli (ECHCG)
Procedure, shortened: as §1

[10] = tested on: Ipomoea hederacea (IPOHE); test: Post-emergence herbicidal glasshouse test, Ipomoea hederacea (IPOHE)
Procedure, shortened: as §1

Row | SMILES | PRE Application AMARE, percentage damage (five point scale) ([1]; 500 g/h) | PRE Application ABUTH, percentage damage (five point scale) ([2]; 500 g/h) | PRE Application SETFA, percentage damage (five point scale) (Setaria faberi (SETFA) [3]; 500 g/h) | PRE Application ECHCG, percentage damage (five point scale) ([4]; 500 g/h) | PRE Application IPOHE, percentage damage (five point scale) ([5]; 500 g/h) | POST Application AMARE, percentage damage (five point scale) ([6]; 500 g/h) | POST Application ABUTH, percentage damage (five point scale) ([7]; 500 g/h) | POST Application SETFA, percentage damage (five point scale) (Setaria faberi (SETFA) [8]; 500 g/h) | POST Application ECHCG, percentage damage (five point scale) ([9]; 500 g/h) | POST Application IPOHE, percentage damage (five point scale) ([10]; 500 g/h) | PRE Application AMARE, percentage damage (five point scale) ([1]; applied at 250 g/ha) | PRE Application ABUTH, percentage damage (five point scale) ([2]; applied at 250 g/ha) | PRE Application SETFA, percentage damage (five point scale) (Setaria faberi (SETFA) [3]; applied at 250 g/ha) | PRE Application ECHCG, percentage damage (five point scale) ([4]; applied at 250 g/ha) | PRE Application IPOHE, percentage damage (five point scale) ([5]; applied at 250 g/ha) | POST Application AMARE, percentage damage (five point scale) ([6]; applied at 250 g/ha) | POST Application ABUTH, percentage damage (five point scale) ([7]; applied at 250 g/ha) | POST Application SETFA, percentage damage (five point scale) (Setaria faberi (SETFA) [8]; applied at 250 g/ha) | POST Application ECHCG, percentage damage (five point scale) ([9]; applied at 250 g/ha) | POST Application IPOHE, percentage damage (five point scale) ([10]; applied at 250 g/ha)
1 | CC(=NOCc1c(S(C)(=O)=O)ccc(C(=O)Nc2nnc(C)o2)c1Cl)N(C)C [Compound 2.129] | 5 (5=80-100%) | 5 (5=80-100%) | 3 (3=40-59%) | 3 (3=40-59%) | 2 (2=20-39%) | 5 (5=80-100%) | 5 (5=80-100%) | 5 (5=80-100%) | 5 (5=80-100%) | 5 (5=80-100%) | – | – | – | – | – | – | – | – | – | –
2 | Cc1nnc(NC(=O)c2ccc(C(F)(F)F)c(N=CN(C)c3ccccc3)c2Cl)o1 [Compound 2.131] | 5 (5=80-100%) | 3 (3=40-59%) | 5 (5=80-100%) | 5 (5=80-100%) | 2 (2=20-39%) | 5 (5=80-100%) | 4 (4=60-79%) | 5 (5=80-100%) | 5 (5=80-100%) | 3 (3=40-59%) | – | – | – | – | – | – | – | – | – | –
3 | Cc1nnc(NC(=O)c2ccc(C(F)(F)F)c(N=CN3CCCC3)c2Cl)o1 [Compound 2.132] | 5 (5=80-100%) | 5 (5=80-100%) | 5 (5=80-100%) | 5 (5=80-100%) | 5 (5=80-100%) | 5 (5=80-100%) | 5 (5=80-100%) | 5 (5=80-100%) | 5 (5=80-100%) | 5 (5=80-100%) | – | – | – | – | – | – | – | – | – | –
4 | Cc1nnc(NC(=O)c2ccc(C(F)(F)F)c(N=CN(C)C(C)C)c2Cl)o1 [Compound 2.140] | 5 (5=80-100%) | 5 (5=80-100%) | 5 (5=80-100%) | 5 (5=80-100%) | 4 (4=60-79%) | 5 (5=80-100%) | 5 (5=80-100%) | 5 (5=80-100%) | 5 (5=80-100%) | 4 (4=60-79%) | – | – | – | – | – | – | – | – | – | –
5 | Cc1nnc(NC(=O)c2ccc(S(C)(=O)=O)c(N=CN(C)CC(F)(F)F)c2Cl)o1 [Compound 2.142] | – | – | – | – | – | – | – | – | – | – | 5 (5=80-100%) | 3 (3=40-59%) | 5 (5=80-100%) | 5 (5=80-100%) | 1 (1=0-19%) | 5 (5=80-100%) | 5 (5=80-100%) | 5 (5=80-100%) | 5 (5=80-100%) | 5 (5=80-100%)
6 | Cc1nnc(NC(=O)c2ccc(S(C)(=O)=O)c(N=CN(C)CC(F)(F)F)c2C)o1 [Compound 2.143] | 5 (5=80-100%) | 5 (5=80-100%) | 5 (5=80-100%) | 5 (5=80-100%) | 5 (5=80-100%) | 5 (5=80-100%) | 5 (5=80-100%) | 5 (5=80-100%) | 5 (5=80-100%) | 5 (5=80-100%) | – | – | – | – | – | – | – | – | – | –
7 | Cc1nnc(NC(=O)c2ccc(S(C)(=O)=O)c(N=CN(C)C(C)C)c2C)o1 [Compound 2.144] | 5 (5=80-100%) | 5 (5=80-100%) | 5 (5=80-100%) | 5 (5=80-100%) | 3 (3=40-59%) | 5 (5=80-100%) | 5 (5=80-100%) | 5 (5=80-100%) | 5 (5=80-100%) | 4 (4=60-79%) | – | – | – | – | – | – | – | – | – | –
8 | CC(=Nc1c(C(F)(F)F)ccc(C(=O)Nc2nnc(C)o2)c1Cl)N(C)C [Compound 2.148] | 5 (5=80-100%) | 5 (5=80-100%) | 5 (5=80-100%) | 5 (5=80-100%) | 5 (5=80-100%) | 5 (5=80-100%) | 5 (5=80-100%) | 5 (5=80-100%) | 5 (5=80-100%) | 3 (3=40-59%) | – | – | – | – | – | – | – | – | – | –
9 | Cc1c(C(=O)C2=C(O)CCCC2=O)ccc(C(F)(F)F)c1N=CN(C)C [Compound 3.017] | 5 (5=80-100%) | 5 (5=80-100%) | 4 (4=60-79%) | 5 (5=80-100%) | 5 (5=80-100%) | 3 (3=40-59%) | 5 (5=80-100%) | 5 (5=80-100%) | 5 (5=80-100%) | 5 (5=80-100%) | – | – | – | – | – | – | – | – | – | –
